Consider three compounds from ChEMBL document CHEMBL1127646, “Mechanism-based isocoumarin inhibitors for blood coagulation serine proteases. Effect of the 7-substituent in 7-amino-4-chloro-3-(isothioureidoalkoxy)isocoumarins on inhibitory and anticoagulant potency” (J Med Chem, 1994).

Some results are limits rather than exact numbers.

Data set [1] addresses Coagulation factor X (Homo sapiens) (UniProt P00742). In words: Inhibition of human factor Xa (inhibitor concentration were 3.6-44 uM).
Data set [2] is described as follows: Hydrolysis half life (t1/2). It is filed as ADME.
Data set [3] deals with T1, Coagulation factor XII (Homo sapiens) (UniProt P00748).
T1 sequence (whole entry): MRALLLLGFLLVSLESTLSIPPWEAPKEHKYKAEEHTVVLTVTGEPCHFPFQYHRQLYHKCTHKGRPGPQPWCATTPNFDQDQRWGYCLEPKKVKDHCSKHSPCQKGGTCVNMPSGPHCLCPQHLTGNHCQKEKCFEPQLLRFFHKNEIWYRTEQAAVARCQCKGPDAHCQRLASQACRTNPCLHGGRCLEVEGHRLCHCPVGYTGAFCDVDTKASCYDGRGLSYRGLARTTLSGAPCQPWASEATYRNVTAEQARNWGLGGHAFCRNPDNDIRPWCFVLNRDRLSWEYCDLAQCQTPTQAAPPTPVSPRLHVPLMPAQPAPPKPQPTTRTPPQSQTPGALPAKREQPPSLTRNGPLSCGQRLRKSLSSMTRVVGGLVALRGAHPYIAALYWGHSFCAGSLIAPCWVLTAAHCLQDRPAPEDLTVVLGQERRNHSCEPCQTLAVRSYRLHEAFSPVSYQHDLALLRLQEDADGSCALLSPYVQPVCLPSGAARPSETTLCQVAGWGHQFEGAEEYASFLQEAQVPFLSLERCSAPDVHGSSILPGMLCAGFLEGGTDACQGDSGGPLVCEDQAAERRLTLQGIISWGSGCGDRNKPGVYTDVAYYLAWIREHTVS
Nature of the data set: Inhibition of human coagulation factor XII (inhibitor concentration were 3.6-4.9 uM).

Data set [4] addresses T2, Coagulation factor III (Sus scrofa) (UniProt Q6RCS8).
T2 sequence (whole entry): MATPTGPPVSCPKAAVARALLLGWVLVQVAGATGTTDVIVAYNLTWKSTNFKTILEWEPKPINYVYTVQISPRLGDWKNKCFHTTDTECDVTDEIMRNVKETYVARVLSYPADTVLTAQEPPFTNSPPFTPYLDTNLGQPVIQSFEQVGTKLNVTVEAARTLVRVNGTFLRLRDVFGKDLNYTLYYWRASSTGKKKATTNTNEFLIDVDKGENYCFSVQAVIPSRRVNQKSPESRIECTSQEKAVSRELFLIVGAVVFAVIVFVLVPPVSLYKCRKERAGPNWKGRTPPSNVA
In words: Anticoagulant activity in PT assay at a dose 16 uM.

The target of another data set is Prothrombin (Bos taurus) (UniProt P00735). In words: Inhibition of bovine thrombin (inhibitor concentration 1.2-54 uM).
Data set [5] addresses Prothrombin (Homo sapiens) (UniProt P00734). In words: Inhibition of human thrombin (inhibitor concentration 1.2-54 uM).
A short description of data set [6]: Anticoagulant activity was determined in Ortho-activated thrombofax (APTT) assay at a dose 16 uM in pig plasma. It is filed as functional, Sus scrofa.
Data set [7] has as its target Coagulation factor IX (Homo sapiens) (UniProt P00740). In words: Inhibition of porcine factor IXa at 8.3-82 uM. The following applies: Sus scrofa, target entry is the homologue from another species.
The target of data set [8] is T2, Coagulation factor III (Sus scrofa). Nature of the data set: Anticoagulant activity in PT assay at a dose 32 uM.
The nature of data set [9]: Anticoagulant activity was determined in Ortho-activated thrombofax (APTT) assay at a dose 31 uM in human dead plasma. It is filed as functional.
Data set [10] can be described thus: Anticoagulant activity was determined in Ortho-activated thrombofax (APTT) assay at a dose 9.4 uM in human dead plasma. It is filed as functional.
Data set [11] concerns the target Coagulation factor XI (Homo sapiens) (UniProt P03951). Nature of the data set: Compound was evaluated for inhibition of enzyme human coagulation factor XI (inhibitor concentration were 0.7-0.8 uM).
Data set [12] deals with T3, Coagulation factor VII (Homo sapiens) (UniProt P08709).
T3 sequence (whole entry): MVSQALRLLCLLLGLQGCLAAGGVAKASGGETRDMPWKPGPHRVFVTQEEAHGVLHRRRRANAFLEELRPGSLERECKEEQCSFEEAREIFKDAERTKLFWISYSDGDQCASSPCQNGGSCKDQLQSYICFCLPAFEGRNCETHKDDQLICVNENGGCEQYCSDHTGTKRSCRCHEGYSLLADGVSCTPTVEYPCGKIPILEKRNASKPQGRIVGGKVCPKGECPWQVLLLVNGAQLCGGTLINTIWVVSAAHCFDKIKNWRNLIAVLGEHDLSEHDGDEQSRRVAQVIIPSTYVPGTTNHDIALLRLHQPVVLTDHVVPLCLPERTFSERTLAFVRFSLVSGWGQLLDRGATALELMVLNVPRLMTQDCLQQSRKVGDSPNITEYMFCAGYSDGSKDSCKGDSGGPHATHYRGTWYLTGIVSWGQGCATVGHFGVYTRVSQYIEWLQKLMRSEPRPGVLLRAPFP
Nature of the data set: Inhibition of human coagulation factor VII at 7.2-44 uM.

Data set [13] in a line: Anticoagulant activity was determined in Ortho-activated thrombofax (APTT) assay at a dose 32 uM in human dead plasma. It is filed as functional.
Data set [14] deals with Tissue factor (Homo sapiens) (UniProt P13726). In words: Anticoagulant activity in PT assay at a dose of 31 uM.
Data set [15] in a line: Anticoagulant activity was determined in Ortho-activated thrombofax (APTT) assay at a dose 32 uM in pig plasma. It is filed as functional, Sus scrofa.
In data set [16] the target is T2, Coagulation factor III (Sus scrofa). In words: Anticoagulant activity in PT assay at a dose of 32 uM.

Coagulation factor X (Homo sapiens), sequence (P00742 41-179 limits assumed): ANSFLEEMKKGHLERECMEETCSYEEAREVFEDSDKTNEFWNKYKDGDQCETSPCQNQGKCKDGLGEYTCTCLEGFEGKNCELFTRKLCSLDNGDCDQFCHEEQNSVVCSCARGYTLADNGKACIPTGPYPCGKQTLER
Coagulation factor X (Homo sapiens), sequence (P00742 235-488 limits assumed): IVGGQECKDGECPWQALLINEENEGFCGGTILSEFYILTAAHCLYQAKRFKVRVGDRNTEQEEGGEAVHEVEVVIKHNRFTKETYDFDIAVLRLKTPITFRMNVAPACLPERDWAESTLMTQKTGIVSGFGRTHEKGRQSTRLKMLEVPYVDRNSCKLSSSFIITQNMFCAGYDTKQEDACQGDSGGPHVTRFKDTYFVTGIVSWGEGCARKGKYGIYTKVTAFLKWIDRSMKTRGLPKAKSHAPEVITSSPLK
Coagulation factor XI (Homo sapiens), sequence (P03951 19-387 limits assumed): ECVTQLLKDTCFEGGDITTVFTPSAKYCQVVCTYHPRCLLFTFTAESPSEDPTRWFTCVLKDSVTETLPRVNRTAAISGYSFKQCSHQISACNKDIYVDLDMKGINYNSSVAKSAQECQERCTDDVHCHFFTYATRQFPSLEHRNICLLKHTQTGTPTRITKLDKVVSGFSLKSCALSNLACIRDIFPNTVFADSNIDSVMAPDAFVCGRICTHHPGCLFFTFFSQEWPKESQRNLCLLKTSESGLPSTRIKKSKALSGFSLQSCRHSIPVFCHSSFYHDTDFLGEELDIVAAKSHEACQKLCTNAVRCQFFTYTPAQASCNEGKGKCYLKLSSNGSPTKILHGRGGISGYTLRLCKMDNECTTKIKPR
Coagulation factor XI (Homo sapiens), sequence (P03951 388-625 limits assumed): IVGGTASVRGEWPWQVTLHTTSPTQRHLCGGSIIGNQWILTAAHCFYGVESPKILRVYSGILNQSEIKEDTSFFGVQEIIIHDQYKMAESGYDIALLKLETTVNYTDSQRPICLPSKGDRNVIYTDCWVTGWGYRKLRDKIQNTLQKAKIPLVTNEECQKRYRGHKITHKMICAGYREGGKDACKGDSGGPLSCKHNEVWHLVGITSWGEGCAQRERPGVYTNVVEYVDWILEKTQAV
Tissue factor (Homo sapiens), sequence (P13726 whole entry): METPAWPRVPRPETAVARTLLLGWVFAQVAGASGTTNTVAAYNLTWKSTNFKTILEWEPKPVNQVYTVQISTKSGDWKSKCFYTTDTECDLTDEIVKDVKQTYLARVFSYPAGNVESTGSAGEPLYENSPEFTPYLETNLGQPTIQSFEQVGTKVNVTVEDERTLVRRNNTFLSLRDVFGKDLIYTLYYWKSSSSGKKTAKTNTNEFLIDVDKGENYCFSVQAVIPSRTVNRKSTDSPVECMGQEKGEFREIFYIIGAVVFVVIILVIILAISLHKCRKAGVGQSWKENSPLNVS

Turning to `N=C(N)SCCOc1oc(=O)c2cc(NC(=O)Nc3ccccc3)ccc2c1Cl`, the K obs / 1 in data set [1] came out at 4740 M⁻¹ s⁻¹; in [3], 50000 M⁻¹ s⁻¹; at Prothrombin (Bos taurus) it was 25000 M⁻¹ s⁻¹; in [5], 22400 M⁻¹ s⁻¹; in [7], 1790 M⁻¹ s⁻¹; in data set [11], 104000 M⁻¹ s⁻¹. The compound further yielded a K obs / 1 in data set [12] of 3140 M⁻¹ s⁻¹. Moreover, the half-life in data set [2] was found to be 1.8 h. For the same compound, the PT was 28.5 s in [4] and 58.3 s in data set [8]. The APTT in data set [6] is listed as more than 120 s; in [9], 87.3 s; in data set [10] it was 47.7 s.

Consider `N=C(N)SCCOc1oc(=O)c2cc(NC(=O)CCc3ccccc3)ccc2c1Cl`, for which the APTT in [13] is given as 140 s; in [9] it was 76.2 s; in data set [10], 52.4 s. This compound came in with a half-life in [2] of 0.65 h. In data set [14], the PT came out at 24.4 s. In data set [5], this compound displayed a K obs / 1 of 2150 M⁻¹ s⁻¹.

In data set [15], `C[C@@H](NC(=O)Nc1ccc2c(Cl)c(OCCSC(=N)N)oc(=O)c2c1)c1ccccc1` had an APTT of more than 120 s. For the same compound, the half-life in data set [2] was determined as 1.03 h. The K obs / 1 came out at 29500 M⁻¹ s⁻¹ on Prothrombin (Bos taurus) and 12000 M⁻¹ s⁻¹ in data set [5]. This compound returned a PT in data set [16] of 26.2 s.

One may read the half-life as the time in which the quantity being followed falls by half. Read a low half-life as fast loss.
